The conditions of the series: 363.15 K; Liquid.

± gives the expanded uncertainty stated by the source.

Take `c1ccccc1` [benzene]: the “vapor or sublimation pressure” value was 137.28 ± 1.8 kPa.
`CCCCCC` [hexane]: the “vapor or sublimation pressure” value is reported as 188.05 ± 2.4 kPa.
Consider `Clc1ccccc1` [chlorobenzene], for which the “vapor or sublimation pressure” value came to 28.33 ± 0.42 kPa.
As for `CNC=O` [N-methylformamide], the “vapor or sublimation pressure” value was 2.1 ± 0.09 kPa [middle of 4 runs].
As to `CC#N` [acetonitrile], the “vapor or sublimation pressure” value stood at 131.21 ± 1.7 kPa.

In general, vapor or sublimation pressure refers to the equilibrium pressure above the liquid or solid.

For the origin of these results see the NIST ThermoML archive (doi:10.1021/je020130i).
